# Patent US20230085307A1, “PYRIDAZINONE COMPOUND AND HERBICIDE” (NISSAN CHEMICAL CORPORATION, priority 2019, published 2023)
# Columns and labels:
# windgrass [1] = experiment: Test Example 4: herbicidal effect by soil treatment (Table 19, symbol L); assay type: in vivo, windgrass (Apera spica-venti); conditions: amount of applied herbicide 320 g/ha
# Summary of the method: (§1)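 Herbicidal effect was rated 3 weeks after treatment, using the scoring criteria of an earlier test. The compound, formulated as an emulsion and diluted in water to a set herbicide amount, had been sprayed uniformly on soil over freshly sown seeds. Growth took place in a greenhouse at 25° C. to 30° C.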
# barnyard grass [2] = experiment: Test Example 4: herbicidal effect by soil treatment (Table 19, symbol H); assay type: in vivo, barnyard grass (Echinochloa crus-galli); conditions: amount of applied herbicide 320 g/ha
# Summary of the method: as §1
# lambsquarters [3] = experiment: Test Example 5: herbicidal effect by foliage application, plastic box (Table 20, symbol O); assay type: in vivo, lambsquarters (Chenopodium album); conditions: evaluated three weeks after application
# Summary of the method: (§2)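 Foliar spray test: emulsion formulation diluted in water to a set application rate, sprayed onto 14-day-old plants raised in diluvial soil at 25° C to 30° C under glass. Both herbicidal effect and crop effect rated visually three weeks later.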
# blackgrass = experiment: Test Example 5: herbicidal effect by foliage application, plastic box (Table 20, symbol J); assay type: in vivo, blackgrass (Alopecurus myosuroides); conditions: evaluated three weeks after application
# Summary of the method: as §2
# chickweed [4] = experiment: Test Example 4: herbicidal effect by soil treatment (Table 19, symbol P); assay type: in vivo, common chickweed (Stellaria media); conditions: amount of applied herbicide 320 g/ha
# Summary of the method: as §1
# Chinese sprangletop = experiment: Test Example 3: herbicidal effect by foliage application, Wagner pot (Table 18, symbol D); assay type: in vivo, chinese sprangletop (Leptochloa chinensis)
# Summary of the method: (§3)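 Plants were sown in alluvial soil held under 0.1–0.5 cm standing water and grown 14 days in a greenhouse at 25–30 °C. An emulsifiable formulation, water-diluted to the set dose, was then sprayed onto the foliage, and effects were scored three weeks later using previously defined criteria.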
# rice flat sedge = experiment: Test Example 3: herbicidal effect by foliage application, Wagner pot (Table 18, symbol E); assay type: in vivo, rice flat sedge (Cyperus iria)
# Summary of the method: as §3
# redroot pigweed [5] = experiment: Test Example 5: herbicidal effect by foliage application, plastic box (Table 20, symbol N); assay type: in vivo, redroot pigweed (Amaranthus retroflexus); conditions: evaluated three weeks after application
# Summary of the method: as §2
# green foxtail [6] = experiment: Test Example 5: herbicidal effect by foliage application, plastic box (Table 20, symbol G); assay type: in vivo, green foxtail (Setaria viridis); conditions: evaluated three weeks after application
# Summary of the method: as §2
# wild oat [7] = experiment: Test Example 5: herbicidal effect by foliage application, plastic box (Table 20, symbol I); assay type: in vivo, wild oat (Avena fatua); conditions: evaluated three weeks after application
# Summary of the method: as §2
# green foxtail [8] = experiment: Test Example 4: herbicidal effect by soil treatment (Table 19, symbol G); assay type: in vivo, green foxtail (Setaria viridis); conditions: amount of applied herbicide 320 g/ha
# Summary of the method: as §1
# Japanese bulrush = experiment: Test Example 1: herbicidal activity, application before weed generation under submerged conditions (Table 16, symbol B); assay type: in vivo, Japanese bulrush (Schoenoplectus juncoides); conditions: amount of applied herbicide 320 g/ha
# Summary of the method: (§4)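 Emulsion formulation, water-diluted to set dose, was put onto the flooded surface (4 cm depth, alluvial soil) the same day weeds were sown and 2.5-leaf rice transplanted. After 3 weeks at 25-30 °C under glass, each species was rated 0 (≤5% kill) to 5 (≥90% kill).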
# persian speedwell [9] = experiment: Test Example 5: herbicidal effect by foliage application, plastic box (Table 20, symbol R); assay type: in vivo, Persian speedwell (Veronica persica); conditions: evaluated three weeks after application
# Summary of the method: as §2
# late watergrass = experiment: Test Example 1: herbicidal activity, application before weed generation under submerged conditions (Table 16, symbol A); assay type: in vivo, late watergrass (Echinochloa oryzicola); conditions: amount of applied herbicide 320 g/ha
# Summary of the method: as §4
# windgrass [10] = experiment: Test Example 5: herbicidal effect by foliage application, plastic box (Table 20, symbol L); assay type: in vivo, windgrass (Apera spica-venti); conditions: evaluated three weeks after application
# Summary of the method: as §2
# southern crabgrass [11] = experiment: Test Example 4: herbicidal effect by soil treatment (Table 19, symbol F); assay type: in vivo, southern crabgrass (Digitaria ciliaris); conditions: amount of applied herbicide 320 g/ha
# Summary of the method: as §1
# persian speedwell [12] = experiment: Test Example 4: herbicidal effect by soil treatment (Table 19, symbol R); assay type: in vivo, Persian speedwell (Veronica persica); conditions: amount of applied herbicide 320 g/ha
# Summary of the method: as §1
# barnyard grass [13] = experiment: Test Example 3: herbicidal effect by foliage application, Wagner pot (Table 18, symbol H); assay type: in vivo, barnyard grass (Echinochloa crus-galli)
# Summary of the method: as §3
# barnyard grass [14] = experiment: Test Example 5: herbicidal effect by foliage application, plastic box (Table 20, symbol H); assay type: in vivo, barnyard grass (Echinochloa crus-galli); conditions: evaluated three weeks after application
# Summary of the method: as §2
# southern crabgrass [15] = experiment: Test Example 5: herbicidal effect by foliage application, plastic box (Table 20, symbol F); assay type: in vivo, southern crabgrass (Digitaria ciliaris); conditions: evaluated three weeks after application
# Summary of the method: as §2
# oval-leafed pondweed = experiment: Test Example 1: herbicidal activity, application before weed generation under submerged conditions (Table 16, symbol C); assay type: in vivo, oval-leafed pondweed (Monochoria vaginalis); conditions: amount of applied herbicide 320 g/ha
# Summary of the method: as §4
# lambsquarters [16] = experiment: Test Example 4: herbicidal effect by soil treatment (Table 19, symbol O); assay type: in vivo, lambsquarters (Chenopodium album); conditions: amount of applied herbicide 320 g/ha
# Summary of the method: as §1
# velvetleaf [17] = experiment: Test Example 4: herbicidal effect by soil treatment (Table 19, symbol M); assay type: in vivo, velvetleaf (Abutilon theophrasti); conditions: amount of applied herbicide 320 g/ha
# Summary of the method: as §1
# chickweed [18] = experiment: Test Example 5: herbicidal effect by foliage application, plastic box (Table 20, symbol P); assay type: in vivo, common chickweed (Stellaria media); conditions: evaluated three weeks after application
# Summary of the method: as §2
# Italian ryegrass [19] = experiment: Test Example 4: herbicidal effect by soil treatment (Table 19, symbol K); assay type: in vivo, Italian ryegrass (Lolium multiflorum); conditions: amount of applied herbicide 320 g/ha
# Summary of the method: as §1
# wild oat [20] = experiment: Test Example 4: herbicidal effect by soil treatment (Table 19, symbol I); assay type: in vivo, wild oat (Avena fatua); conditions: amount of applied herbicide 320 g/ha
# Summary of the method: as §1
# velvetleaf [21] = experiment: Test Example 5: herbicidal effect by foliage application, plastic box (Table 20, symbol M); assay type: in vivo, velvetleaf (Abutilon theophrasti); conditions: evaluated three weeks after application
# Summary of the method: as §2
# Italian ryegrass [22] = experiment: Test Example 5: herbicidal effect by foliage application, plastic box (Table 20, symbol K); assay type: in vivo, Italian ryegrass (Lolium multiflorum); conditions: evaluated three weeks after application
# Summary of the method: as §2
# redroot pigweed [23] = experiment: Test Example 4: herbicidal effect by soil treatment (Table 19, symbol N); assay type: in vivo, redroot pigweed (Amaranthus retroflexus); conditions: amount of applied herbicide 320 g/ha
# Summary of the method: as §1
# [24] = foliage application, AAH 320 g/ha
# [25] = amount of applied herbicide 320 g/ha
# [26] = amount of applied herbicide 320 g/ha, foliage application after 14-day growth
smiles,measurement,setting,value
CCCC(=O)Oc1c(C)nn(C)c(=O)c1-c1c(-c2ccc3c(c2)OC(F)(F)O3)sc2ccc(F)cc12 [2-393],"herbicidal effect, L: windgrass",windgrass [1],5 (Herbicidal rate of 90% or more (almost completely withered))
same,"herbicidal effect, H: barnyard grass",barnyard grass [2],0 (Herbicidal rate of 5% or less (almost no effect))
same,"O: lambsquarters, herbicidal effect (criteria 0-5)",lambsquarters [3]; [24],4 (Herbicidal rate of 70% or more and less than 90%)
same,"J: blackgrass, herbicidal effect (criteria 0-5)",blackgrass; [24],1 (Herbicidal rate of 5% or more and less than 20%)
same,"herbicidal effect, P: chickweed",chickweed [4],4 (Herbicidal rate of 70% or more and less than 90%)
same,herbicidal effect on D: Chinese sprangletop,Chinese sprangletop; [25],1 (Herbicidal rate of 5% or more and less than 20%)
same,herbicidal effect on E: rice flat sedge,rice flat sedge; [25],3 (Herbicidal rate of 40% or more and less than 70%)
same,"N: redroot pigweed, herbicidal effect (criteria 0-5)",redroot pigweed [5]; [24],4 (Herbicidal rate of 70% or more and less than 90%)
same,"G: green foxtail, herbicidal effect (criteria 0-5)",green foxtail [6]; [24],4 (Herbicidal rate of 70% or more and less than 90%)
same,"I: wild oat, herbicidal effect (criteria 0-5)",wild oat [7]; [24],4 (Herbicidal rate of 70% or more and less than 90%)
same,"herbicidal effect, G: green foxtail",green foxtail [8],0 (Herbicidal rate of 5% or less (almost no effect))
same,"Herbicidal effect, B: Japanese bulrush",Japanese bulrush,0 (Herbicidal rate of 5% or less (almost no effect))
same,"R: persian speedwell, herbicidal effect (criteria 0-5)",persian speedwell [9]; [24],5 (Herbicidal rate of 90% or more (almost completely withered))
same,"Herbicidal effect, A: late watergrass",late watergrass,3 (Herbicidal rate of 40% or more and less than 70%)
same,"L: windgrass, herbicidal effect (criteria 0-5)",windgrass [10]; [24],5 (Herbicidal rate of 90% or more (almost completely withered))
same,"herbicidal effect, F: southern crabgrass",southern crabgrass [11],0 (Herbicidal rate of 5% or less (almost no effect))
same,"herbicidal effect, R: persian speedwell",persian speedwell [12],4 (Herbicidal rate of 70% or more and less than 90%)
same,herbicidal effect on H: barnyard grass,barnyard grass [13]; [25],5 (Herbicidal rate of 90% or more (almost completely withered))
same,"H: barnyard grass, herbicidal effect (criteria 0-5)",barnyard grass [14]; [24],5 (Herbicidal rate of 90% or more (almost completely withered))
same,"F: southern crabgrass, herbicidal effect (criteria 0-5)",southern crabgrass [15]; [24],1 (Herbicidal rate of 5% or more and less than 20%)
same,"Herbicidal effect, C: oval-leafed pondweed",oval-leafed pondweed,0 (Herbicidal rate of 5% or less (almost no effect))
same,"herbicidal effect, O: lambsquarters",lambsquarters [16],0 (Herbicidal rate of 5% or less (almost no effect))
same,"herbicidal effect, M: velvetleaf",velvetleaf [17],0 (Herbicidal rate of 5% or less (almost no effect))
same,"P: chickweed, herbicidal effect (criteria 0-5)",chickweed [18]; [24],5 (Herbicidal rate of 90% or more (almost completely withered))
same,"herbicidal effect, K: Italian ryegrass",Italian ryegrass [19],4 (Herbicidal rate of 70% or more and less than 90%)
same,"herbicidal effect, I: wild oat",wild oat [20],0 (Herbicidal rate of 5% or less (almost no effect))
same,"M: velvetleaf, herbicidal effect (criteria 0-5)",velvetleaf [21]; [24],4 (Herbicidal rate of 70% or more and less than 90%)
same,"K: Italian ryegrass, herbicidal effect (criteria 0-5)",Italian ryegrass [22]; [24],4 (Herbicidal rate of 70% or more and less than 90%)
same,"herbicidal effect, N: redroot pigweed",redroot pigweed [23],0 (Herbicidal rate of 5% or less (almost no effect))
COCOc1ccccc1-c1sc2c(Cl)cccc2c1-c1c(O)c(C)nn(C)c1=O [4-083],"Herbicidal effect by soil treatment, L: windgrass",windgrass [1],0 (Herbicidal rate of 5% or less (almost no effect))
same,"Herbicidal effect by soil treatment, H: barnyard grass",barnyard grass [2],1 (Herbicidal rate of 5% or more and less than 20%)
same,"Herbicidal effect by foliage application, O: lambsquarters",lambsquarters [3]; [26],1 (Herbicidal rate of 5% or more and less than 20%)
same,"Herbicidal effect by foliage application, J: blackgrass",blackgrass; [26],0 (Herbicidal rate of 5% or less (almost no effect))
same,"Herbicidal effect by soil treatment, P: chickweed",chickweed [4],3 (Herbicidal rate of 40% or more and less than 70%)
same,herbicidal effect on Chinese sprangletop (D),Chinese sprangletop; 320 g/ha,4 (Herbicidal rate of 70% or more and less than 90%)
same,herbicidal effect on rice flat sedge (E),rice flat sedge; 320 g/ha,5 (Herbicidal rate of 90% or more (almost completely withered))
same,"Herbicidal effect by foliage application, N: redroot pigweed",redroot pigweed [5]; [26],1 (Herbicidal rate of 5% or more and less than 20%)
same,"Herbicidal effect by foliage application, G: green foxtail",green foxtail [6]; [26],3 (Herbicidal rate of 40% or more and less than 70%)
same,"Herbicidal effect by foliage application, I: wild oat",wild oat [7]; [26],0 (Herbicidal rate of 5% or less (almost no effect))
same,"Herbicidal effect by soil treatment, G: green foxtail",green foxtail [8],0 (Herbicidal rate of 5% or less (almost no effect))
same,"Herbicidal effect, B: Japanese bulrush",Japanese bulrush,0 (Herbicidal rate of 5% or less (almost no effect))
same,"Herbicidal effect by foliage application, R: persian speedwell",persian speedwell [9]; [26],5 (Herbicidal rate of 90% or more (almost completely withered))
same,"Herbicidal effect, A: late watergrass",late watergrass,3 (Herbicidal rate of 40% or more and less than 70%)
same,"Herbicidal effect by foliage application, L: windgrass",windgrass [10]; [26],4 (Herbicidal rate of 70% or more and less than 90%)
same,"Herbicidal effect by soil treatment, F: southern crabgrass",southern crabgrass [11],0 (Herbicidal rate of 5% or less (almost no effect))
same,"Herbicidal effect by soil treatment, R: persian speedwell",persian speedwell [12],3 (Herbicidal rate of 40% or more and less than 70%)
same,herbicidal effect on barnyard grass (H),barnyard grass [13]; 320 g/ha,5 (Herbicidal rate of 90% or more (almost completely withered))
same,"Herbicidal effect by foliage application, H: barnyard grass",barnyard grass [14]; [26],4 (Herbicidal rate of 70% or more and less than 90%)
same,"Herbicidal effect by foliage application, F: southern crabgrass",southern crabgrass [15]; [26],3 (Herbicidal rate of 40% or more and less than 70%)
same,"Herbicidal effect, C: oval-leafed pondweed",oval-leafed pondweed,0 (Herbicidal rate of 5% or less (almost no effect))
same,"Herbicidal effect by soil treatment, O: lambsquarters",lambsquarters [16],0 (Herbicidal rate of 5% or less (almost no effect))
same,"Herbicidal effect by soil treatment, M: velvetleaf",velvetleaf [17],1 (Herbicidal rate of 5% or more and less than 20%)
same,"Herbicidal effect by foliage application, P: chickweed",chickweed [18]; [26],5 (Herbicidal rate of 90% or more (almost completely withered))
same,"Herbicidal effect by soil treatment, K: Italian ryegrass",Italian ryegrass [19],0 (Herbicidal rate of 5% or less (almost no effect))
same,"Herbicidal effect by soil treatment, I: wild oat",wild oat [20],0 (Herbicidal rate of 5% or less (almost no effect))
same,"Herbicidal effect by foliage application, M: velvetleaf",velvetleaf [21]; [26],3 (Herbicidal rate of 40% or more and less than 70%)
same,"Herbicidal effect by foliage application, K: Italian ryegrass",Italian ryegrass [22]; [26],0 (Herbicidal rate of 5% or less (almost no effect))
same,"Herbicidal effect by soil treatment, N: redroot pigweed",redroot pigweed [23],3 (Herbicidal rate of 40% or more and less than 70%)
